Results published in publication PMC3785478, “Crystal Structures of Human Muscle Fructose-1,6-Bisphosphatase: Novel Quaternary States, Enhanced AMP Affinity, and Allosteric Signal Transmission Pathway” (PLoS ONE, 2013).

What was measured:
[1] = target: T1, human muscle fructose-1,6-bisphosphatase (hmFru-1,6-Pase) (Homo sapiens, UniProt O00757, Q33R); assay: also coupled enzyme inhibition assay (I0.[…]); assay type: biochemical
T1 construct: gene FBP2; model includes residues 11–54 and 72–335
T1 sequence (O00757 2-339 Q33R): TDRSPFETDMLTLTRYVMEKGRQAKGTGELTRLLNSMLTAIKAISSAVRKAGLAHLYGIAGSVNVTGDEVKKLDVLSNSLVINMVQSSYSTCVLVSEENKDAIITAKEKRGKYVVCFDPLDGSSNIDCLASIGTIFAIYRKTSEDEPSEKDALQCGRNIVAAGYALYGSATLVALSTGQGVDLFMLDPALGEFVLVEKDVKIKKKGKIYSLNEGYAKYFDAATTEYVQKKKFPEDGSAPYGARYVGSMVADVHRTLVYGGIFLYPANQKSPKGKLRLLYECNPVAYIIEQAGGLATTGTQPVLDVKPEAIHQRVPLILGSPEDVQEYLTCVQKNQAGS

[2] = target: T2, human muscle fructose-1,6-bisphosphatase (hmFru-1,6-Pase) (Homo sapiens, UniProt O00757); assay: coupled enzyme assay (G6PDH/phosphoglucose isomerase, NADP, […] nm), AMP titration; assay type: biochemical; conditions: read-out: Wild-type Fru-1,6-Pase
T2 construct: gene FBP2
T2 sequence (O00757 1-339): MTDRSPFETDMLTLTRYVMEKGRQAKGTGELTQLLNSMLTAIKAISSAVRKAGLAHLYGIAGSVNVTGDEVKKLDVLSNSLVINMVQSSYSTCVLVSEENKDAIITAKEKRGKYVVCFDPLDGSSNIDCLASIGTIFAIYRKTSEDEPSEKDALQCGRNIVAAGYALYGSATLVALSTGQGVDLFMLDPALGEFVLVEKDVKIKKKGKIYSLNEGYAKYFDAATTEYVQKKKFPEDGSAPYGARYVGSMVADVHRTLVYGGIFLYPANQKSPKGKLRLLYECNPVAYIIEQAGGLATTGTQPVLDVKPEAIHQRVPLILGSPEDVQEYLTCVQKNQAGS

For `Nc1ncnc2c1ncn2[C@@H]1O[C@H](COP(=O)(O)O)[C@@H](O)[C@H]1O` [AMP], which IC50 [1] is on record?
The IC50 was 3.65 µM.

What about the IC50 [2] of the same compound?
Its IC50 is 0.19 µM.
